Experimental data as given in patent US20190216751A1, “Compositions and Methods for the Treatment and Prevention of Cancer” (California State University Northridge, priority 2017, published 2019).

Tests used:
MDA-MB-468 cells = experiment: Cell proliferation assay (CellTiter 96 AQueous One, MTS); assay type: cell-based, human; settings: TubA 1 μM pretreatment, GC7 0.1 nM to 1 mM
Text: (§1) The next research questions revolved around asking how TGFβ is regulating eIF5A and what other proteins might be involved to completely block TGFβ-induced EMT. This led to histone deacetylase enzyme 6 (HDAC6). HDAC6 has been previously reported to be responsible for the deacetylation of eIF5A in the nucleus in order to make it readily available for hypusination and later transport out in the cytoplasm for functioning as a translation factor. To determine if it were possible to further increase the efficacy or potency of GC7, the inventors co-treated with Tubastatin A (an HDAC6 inhibitor) in 4T1 and 67NR cells as well as MDA-MB-468 cells which initially were not very sensitive to GC7. Triple negative human breast cancer cell line, BT547, was also used to see if another cell line representative of this breast cancer subtype was sensitive towards DHPS and HDAC6 inhibition. (FIGS. 5A and 5B). […] MDA-MB-468 and BT549 cells remained to be insensitive to TubA with or without GC7 pretreatment (FIG. 5A). […]
(§2) The CellTiter 96® AQueous One Solution (Promega) was used to perform cell proliferation experiments. […] Absorbance readings were measured at 490 nm wavelength at 1.5, 2 and 3 hours (absorbance is directly proportional to the number of living cells).

BT549 cells = experiment: as above; assay type: cell-based, human; settings: TubA 1 μM pretreatment, GC7 0.1 nM to 1 mM
Text: as §1, §2

[1] = system: ZEB1 expression in 4T1 cells; experiment: qPCR ZEB1 mRNA, TGFβ-induced EMT; assay type: cell-based, mouse; settings: for ZEB1 mRNA expression: GC7 10 μM pre-treatment
Text: The pathway in which the inventors are interested in targeting eIF5A is in the context of TGFβ-induced EMT and TGFβ is a well-characterized inducer of EMT. […] Phase-contrast images are shown to the right of the western blot to indicate a shift in morphology after treatment with TGFβ. […] Since TGFβ can induce PEAK1 upregulation, while in contrast, hypusinated eIF5A promotes PEAK1 translation, the inventors sought to see if TGFβ alone can upregulate hypusinated eIF5A. Post-translational modifications can occur relatively fast. Therefore short-term treatments of TGFβ on 4T1, 67NR and MCF10CA1a cells were performed initially. Protein lysates were collected after 10, 30 and 120 minutes of treatment and immunoblotted for hypusine, total eIF5A and β-actin (FIG. 4B). […] Relative band intensity is graphed to the right of the western blot in which the ratio between hypusine to total eIF5A is compared first between treated samples to control samples then a ratio is calculated comparing each time point relative to 10 minutes as a starting time point of reference. […] The inventors were also interested in what genes were altered at the transcriptional level when dual treating with TGFβ and GC7 at the same time to block EMT. To test for this, 4T1 and MCF10CA1a cells were plated on either plastic or fibronectin extra-cellular matrix (ECM) protein and pre-treated them with GC7 at 10 μM for 48 hours to ensure the eIF5A hypusination pathway is blocked. The inventors then treated with TGFβ at 2.5 ng/mL and collected RNA after 12 or 48 hours. […] Phase contrast images were also taken before RNA collection to show changes in morphology where EMT was either induced or reversed (FIG. 4C). […] Also, with the correct treatment time and conditions, inhibition of hypusination can block TGFβ-induced EMT.
Next, the inventors investigated whether blockade of HDAC6 and DHPS activity could further suppress TGFβ-induced EMT either independently or simultaneously. To test this, 4T1 cells were treated with either TubA at 10 μM, GC7 at 10 μM or both for 48 hours. At this time point, protein lysates were collected as well as phase-contrast images (FIGS. 6B and 6C). At that same time point, the media was changed and the cells were re-treated with the same drugs at the same concentrations; however, this time with the addition of TGFβ at 2.5 ng/mL. The inventors collected protein lysates and phase-contrast images just one day post TGFβ treatment, calling this the 72-hour time point (FIGS. 6B and 6C). In addition, the inventors collected mRNA, protein lysates, phase-contrast and immunofluorescences images two days post TGFβ treatment, calling this the 96-hour time point (FIGS. 6A, 6B, 6C and 6D).
Cell lines were plated in a 6 well plate at 1e5 cells/mL and left to attach overnight. […]

In the case of `N=C(N)NCCCCCCCN.O=S(=O)(O)O` [GC7, N1-Guanyl-1,7-diaminoheptane], the “change of potency of GC7 by TubA pretreatment (cell viability)” value (MDA-MB-468 cells) is reported as “this effect was not seen in the three other cell lines”, the “change of potency of GC7 by TubA pretreatment (cell viability)” value (BT549 cells) is reported as “this effect was not seen in the three other cell lines” and the “TGFβ-induced EMT, ZEB1 mRNA (qPCR)” value ([1]; 10 μM each drug, re-treated with TGFβ 2.5 ng/mL at 48 hours, 96-hour time point) is reported as “failed to block TGFβ-induced EMT”. The “ZEB1 mRNA expression” value ([1]; TGFβ 2.5 ng/mL 12 hours, fibronectin) was “this effect was blocked on fibronectin”, the “ZEB1 mRNA expression” value ([1]; TGFβ 2.5 ng/mL 12 hours, plastic) was “decreased” and the “ZEB1 mRNA expression” value ([1]; TGFβ 2.5 ng/mL 48 hours) was “This effect was not seen after 48 hours”.
